Data from the NIST ThermoML archive (doi:10.1016/j.jct.2012.06.030).

Assay: molar heat capacity at constant pressure; xn = mol fraction of the nth substance listed
Details: 101 kPa, Liquid, Small sample (50 mg) DSC

CCCCCC[n+]1ccc2ccccc2c1.N#C[S-] [2-hexylisoquinolinium thiocyanate] + O
molar heat capacity at constant pressure [J/K/mol]
Details	x1 = 0.2887	x1 = 0.4013	x1 = 0.5043	x1 = 0.6059	x1 = 0.6997	x1 = 0.7864	x1 = 0.8824	x1 = 1
288.15 K	189	220	265	298	333	347	390	433
293.15 K	191	222	267	300	335	350	392	436
298.15 K	192	224	269	302	337	352	395	439
303.15 K	193	225	271	304	340	354	397	442
308.15 K	195	226	272	306	341	357	400	445
313.15 K	196	228	274	308	343	359	402	447
318.15 K	197	229	276	309	346	361	404	450
323.15 K	198	230	277	311	348	363	406	453
328.15 K	198	232	278	312	350	365	409	456
333.15 K	199	233	280	314	352	367	411	458
338.15 K	200	234	281	316	353	369	413	461
343.15 K	201	235	283	318	355	371	415	463
